Where two headings read alike, the source gives them in different places.
Tests used:
HEK293 cells = assay: Cellular growth inhibition assay (CellTiter-Glo), HEK293 cells; format: cell-based; details: read-out: CTG HEK293 GI50
Protocol: (§1) HEK293 and HeLa cells were cultured in DMEM medium supplemented with 10% fetal bovine serum and 1% Penn/Strep. Cells were seeded in white 384-well plates at 500 cells/well in […] complete medium. Following seeding, plates were spun at 300×g for three minutes and cultured at 37° C. with 5% CO2 in a humidified tissue culture incubator.
(§2) After 24 hours, compounds were titrated in 100% DMSO and diluted in complete cell culture medium. […] of compound/media mixture was added to cells to bring total volume in well to […]. DMSO alone was used as a negative control. Plates were then spun at 300×g for three minutes and stored at 37° C. with 5% CO2 for three days.
(§3) On Day 0 and Day 3 of compound treatment, cell viability was quantified with CellTiter-Glo 2.0 reagent (Promega). After equilibrating microplates at room temperature for 30 minutes, 25 μL CellTiter-Glo 2.0 reagent was dispensed into each well to bring total volume to […]. Plates were mixed on shaker for 2 minutes at 500 rpm, followed by a 10-minute incubation at room temperature. Following a quick spin, luminescence readings were measured with an En Vision Plate Reader. Data was normalized to DMSO treated Day 0 and Day 3 readings. A four-parameter non-linear regression curve fit was applied to dose-response data in GraphPad Prism data analysis software to determine the half maximal growth inhibitory concentration (GI50) for each compound.

HeLa cells = assay: Cellular growth inhibition assay (CellTiter-Glo), HeLa cells; format: cell-based; details: read-out: CTG HELA GI50
Protocol: as §1, §2, §3

[1] = HEK293 cells, three days of compound treatment, CellTiter-Glo 2.0
[2] = HeLa cells, three days of compound treatment, CellTiter-Glo 2.0
[3] = Homo sapiens, 72 h, HEK293 cells, three days of compound treatment, CellTiter-Glo 2.0
[4] = Homo sapiens, 72 h, HeLa cells, three days of compound treatment, CellTiter-Glo 2.0

GI50 (HeLa cells; [4]) [nM] | Compound | GI50 (HEK293 cells; [1]) [nM] | GI50 (HeLa cells; [2]) [nM] | GI50 (HEK293 cells; [3]) [nM] | further results
– | CCc1cnn2c(NCc3ccc(OCCCCCOc4nc(C#N)ccc4N[C@@H](C)c4cc5cc(Cl)ccc5[nH]c4=O)nc3)cc(N3CCCC[C@H]3CCO)nc12 [Compound I-90, 5-[[(1S)-1-(6-chloro-2-oxo-1H-quinolin-3-yl)ethyl]amino]-6-[5-[5-[[[3-ethyl-5-[(2S)-2-(2-hydroxyethyl)-1-piperidyl]pyrazolo[1,5-a]pyrimidin-7-yl]aminomethyl]-2-pyridyl]oxy]pentoxy]pyridine-2-carbonitrile] | < 500 | < 500 | – | –
– | CCc1cnn2c(NCc3ccc(OCCOCCOCCOCCOCCNS(=O)(=O)c4cc(F)cc(N(C(=O)[C@@H]5CCC(=O)N5c5cc(C#N)ccn5)C(C(=O)NC5CC(F)(F)C5)c5ccccc5Cl)c4)nc3)cc(N3CCCC[C@H]3CCO)nc12 (stereo partly shown) [Compound I-94] | 1500 to 5000 | 500 to 1500 | – | –
1500 to 5000 | CN(CCOCCOCCNS(=O)(=O)c1cc(F)cc(N(C(=O)[C@@H]2CCC(=O)N2c2cc(C#N)ccn2)C(C(=O)NC2CC(F)(F)C2)c2ccccc2Cl)c1)C(=O)N1N=C(c2cc(F)ccc2F)SC1(CCCN)c1ccccc1 (stereo partly drawn) [Compound I-114, 2-(3-aminopropyl)-N-[2-[2-[2-[[3-[[1-(2-chlorophenyl)-2-[(3,3-difluorocyclobutyl)amino]-2-oxo-ethyl]-[(2S)-1-(4-cyano-2-pyridyl)-5-oxo-pyrrolidine-2-carbonyl]amino]-5-fluoro-phenyl]sulfonylamino]ethoxy]ethoxy]ethyl]-5-(2,5-difluorophenyl)-N-methyl-2-phenyl-1,3,4-thiadiazole-3-carboxamide] | – | – | > 5000 | –
> 5000 | CCNC(=O)C[C@@H]1N=C(c2ccc(OCCOCCOCCOCCOCC(=O)N3CC(=O)N(c4cc(C#N)ccn4)[C@H](C(=O)N(c4cc(F)cc(F)c4)[C@H](C(=O)NC4CC(F)(F)C4)c4ccccc4Cl)C3)cc2)c2c(sc(C)c2C)-n2c(C)nnc21 [Compound I-106, (2S)—N-[(1S)-1-(2-chlorophenyl)-2-[(3,3-difluorocyclobutyl)amino]-2-oxo-ethyl]-1-(4-cyano-2-pyridyl)-N-(3,5-difluorophenyl)-4-[2-[2-[2-[2-[2-[4-[(9S)-9-[2-(ethylamino)-2-oxo-ethyl]-4,5,13-trimethyl-3-thia-1,8,11,12-tetrazatricyclo[8.3.0.0^2,6]trideca-2 (6),4,7, 10,12-pentaen-7-yl]phenoxy]ethoxy]ethoxy]ethoxy]ethoxy]acetyl]-6-oxo-piperazine-2-carboxamide] | – | – | > 5000 | –
– | CCc1cnn2c(NCc3ccc(OCCOCCOCCOCCOCCCc4cc(-c5cnc([C@H](C)Nc6nccc(N7C(=O)OC[C@@H]7[C@H](C)F)n6)cc5C)cc(C(F)(F)F)n4)nc3)cc(N3CCCC[C@H]3CCO)nc12 [Compound I-102] | < 500 | < 500 | – | –
– | CCc1cnn2c(NCc3ccc(=O)n(CCOCCOCCOCCOCCNS(=O)(=O)c4cc(F)cc(N(C(=O)[C@@H]5CCC(=O)N5c5cc(C#N)ccn5)C(C(=O)NC5CC(F)(F)C5)c5ccccc5Cl)c4)c3)cc(N3CCCC[C@H]3CCO)nc12 (stereo partly shown) [Compound I-95] | 1500 to 5000 | 500 to 1500 | – | –
500 to 1500 | C=CC(=O)N1CCN([C@@H](CC2CC2)c2ccc([C@H](C)Nc3ncc4c(n3)N(CCOCCOCCOCCOCCOCCOCCON(C)C(=O)N3N=C(c5cc(F)ccc5F)SC3(CCCN)c3ccccc3)C(=O)OC4)cc2)CC1 (stereo partly shown) [Compound I-60] | – | – | 1500 to 5000 | –
> 5000 | CN(CCNS(=O)(=O)c1cc(F)cc(N(C(=O)[C@@H]2CCC(=O)N2c2cc(C#N)ccn2)[C@@H](C(=O)NC2CC(F)(F)C2)c2ccccc2Cl)c1)C(=O)N1N=C(c2cc(F)ccc2F)SC1(CCCN)c1ccccc1 (stereo partly drawn) [Compound I-113, 2-(3-aminopropyl)-N-[2-[[3-[[(1R)-1-(2-chlorophenyl)-2-[(3,3-difluorocyclobutyl)amino]-2-oxo-ethyl]-[(2S)-1-(4-cyano-2-pyridyl)-5-oxo-pyrrolidine-2-carbonyl]amino]-5-fluoro-phenyl]sulfonylamino]ethyl]-5-(2,5-difluorophenyl)-N-methyl-2-phenyl-1,3,4-thiadiazole-3-carboxamide] | – | – | > 5000 | –
500 to 1500 | C=CC(=O)N1CCN([C@@H](CC2CC2)c2ccc([C@H](C)Nc3ncc4c(n3)N(CCOCCOCCOCCOCCOCCOCCOCCOCCON(C)C(=O)N3N=C(c5cc(F)ccc5F)SC3(CCCN)c3ccccc3)C(=O)OC4)cc2)CC1 (stereo partly shown) [Compound I-61] | – | – | 1500 to 5000 | –
500 to 1500 | CN(CCNS(=O)(=O)c1cc(F)cc(N(C(=O)[C@@H]2CCC(=O)N2c2cc(C#N)ccn2)[C@H](C(=O)NC2CC(F)(F)C2)c2ccccc2Cl)c1)C(=O)N1N=C(c2cc(F)ccc2F)SC1(CCCN)c1ccccc1 (stereo partly drawn) [Compound I-112, 2-(3-aminopropyl)-N-[2-[[3-[[(1S)-1-(2-chlorophenyl)-2-[(3,3-difluorocyclobutyl)amino]-2-oxo-ethyl]-[(2S)-1-(4-cyano-2-pyridyl)-5-oxo-pyrrolidine-2-carbonyl]amino]-5-fluoro-phenyl]sulfonylamino]ethyl]-5-(2,5-difluorophenyl)-N-methyl-2-phenyl-1,3,4-thiadiazole-3-carboxamide] | – | – | 1500 to 5000 | –
– | CCc1cnn2c(NCc3ccc(OCCOCCOCCCCCn4c(C#N)ccc(N[C@@H](C)c5cc6cc(Cl)ccc6[nH]c5=O)c4=O)nc3)cc(N3CCCC[C@H]3CCO)nc12 [Compound I-91] | < 500 | < 500 | – | –
> 5000 | CCNC(=O)C[C@@H]1N=C(c2ccc(OCCOCCOCC(=O)N3CC(=O)N(c4cc(C#N)ccn4)[C@H](C(=O)N(c4cc(F)cc(F)c4)[C@H](C(=O)NC4CC(F)(F)C4)c4ccccc4Cl)C3)cc2)c2c(sc(C)c2C)-n2c(C)nnc21 [Compound I-105, (2S)—N-[(1S)-1-(2-chlorophenyl)-2-[(3,3-difluorocyclobutyl)amino]-2-oxo-ethyl]-1-(4-cyano-2-pyridyl)-N-(3,5-difluorophenyl)-4-[2-[2-[2-[4-[(9S)-9-[2-(ethylamino)-2-oxo-ethyl]-4,5,13-trimethyl-3-thia-1,8,11,12-tetrazatricyclo[8.3.0.0^2,6]trideca-2 (6),4,7,10,12-pentaen-7-yl]phenoxy]ethoxy]ethoxy]acetyl]-6-oxo-piperazine-2-carboxamide] | – | – | > 5000 | –
1500 to 5000 | CCc1cnn2c(NCc3ccc(OCCOCCOCCOCCOCCOCCOCCN(C)C/C=C/C(=O)N4CCC[C@@H](n5nc(-c6ccc(Oc7ccccc7)cc6)c6c(N)ncnc65)C4)nc3)cc(N3CCCC[C@H]3CCO)nc12 [Compound I-46] | – | – | 1500 to 5000 | –
– | CCc1cnn2c(NCc3ccc(OCCCCCn4c(C#N)ccc(N[C@@H](C)c5cc6cc(Cl)ccc6[nH]c5=O)c4=O)nc3)cc(N3CCCC[C@H]3CCO)nc12 [Compound I-89] | 1500 to 5000 | < 500 | – | –
< 500 | CCc1cnn2c(NCc3ccc(=O)n(CCOCCOCCCc4cc(-c5cnc([C@H](C)Nc6nccc(N7C(=O)OC[C@@H]7[C@H](C)F)n6)cc5C)cc(C(F)(F)F)n4)c3)cc(N3CCCC[C@H]3CCO)nc12 [Compound I-100, (4R)-3-[2-[[(1S)-1-[5-[2-[3-[2-[2-[5-[[3-ethyl-5-[(2S)-2-(2-hydroxyethyl)-1-piperidyl]pyrazolo[1,5-a]pyrimidin-7-yl]aminomethyl]-2-oxo-1-pyridyl]ethoxy]ethoxy]propyl]-6-(trifluoromethyl)-4-pyridyl]-4-methyl-2-pyridyl]ethyl]amino]pyrimidin-4-yl]-4-[(1S)-1-fluoroethyl]oxazolidin-2-one] | – | – | < 500 | –
– | CC(C)(C)c1[nH]cnc1/C=c1\[nH]c(=O)/c(=C/c2ccccc2)n(CCOCCOCC(=O)N2CC(=O)N(c3cc(C#N)ccn3)[C@H](C(=O)N(c3cc(F)cc(F)c3)[C@H](C(=O)NC3CC(F)(F)C3)c3ccccc3Cl)C2)c1=O [Compound I-109, (2S)-4-[2-[2-[2-[(2Z,5Z)-2-benzylidene-5-[(5-tert-butyl-1H-imidazol-4-yl)methylene]-3,6-dioxo-piperazin-1-yl]ethoxy]ethoxy]acetyl]-N-[(1S)-1-(2-chlorophenyl)-2-[(3,3difluorocyclobutyl)amino]-2-oxo-ethyl]-1-(4-cyano-2-pyridyl)-N-(3,5-difluorophenyl)-6-oxo-piperazine-2-carboxamide] | – | – | – | GI50 (HEK293 cells; Homo sapiens, HEK293, 72 h): > 5000 nM; GI50 (HeLa cells; Homo sapiens, HeLa, 72 h): > 5000 nM

Compound | GI50 (HeLa cells; [4]) [nM] | GI50 (HEK293 cells; [1]) [nM] | GI50 (HeLa cells; [2]) [nM] | GI50 (HEK293 cells; [3]) [nM] | further results
CC(C)(C)c1[nH]cnc1/C=c1\[nH]c(=O)/c(=C/c2ccccc2)n(CCOCCOCCOCCOCC(=O)N2CC(=O)N(c3cc(C#N)ccn3)[C@H](C(=O)N(c3cc(F)cc(F)c3)[C@H](C(=O)NC3CC(F)(F)C3)c3ccccc3Cl)C2)c1=O [Compound I-110, (2S)-4-[2-[2-[2-[2-[2-[(2Z,5Z)-2-benzylidene-5-[(5-tert-butyl-1 H-imidazol-4-yl)methylene]-3,6-dioxo-piperazin-1-yl]ethoxy]ethoxy]ethoxy]ethoxy]acetyl]-N-[(1S)-1-(2-chlorophenyl)-2-[(3,3-difluorocyclobutyl)amino]-2-oxo-ethyl]-1-(4-cyano-2-pyridyl)-N-(3,5-difluorophenyl)-6-oxo-piperazine-2-carboxamide] | > 5000 | – | – | > 5000 | –
